Assay results reported in patent publication US20090076172A1, “Prolonged Deactivation” (priority 2004, published 2009).

Biological target: T1, Der p1 allergen (Dermatophagoides pteronyssinus, UniProt P08176)
T1 construct: House dust was passed through a number of sieves and the fraction smaller than 53 μm was collected; from tissue; host or cells: house dust (sieved fraction smaller than 53 μm)
Experiment: Der p1 allergen reduction in house dust after vapour exposure in a booth (ELISA)
Details: 0.8 ml β-pinene on 6 ml water vaporised by oil burner, house dust on PTFE tray, vs pre-treatment control
From the text: When using house dust for allergen denaturing tests an inherent difficulty is the variability of the amount of allergen in each small sample, even when taken from the same dust reservoir. The amount of dust in the pre-treatment sample must be accurately estimated in order to determine the extent of any allergen denaturing. In these tests the dust sample was applied to the test exposure surface and then one half of this surface dust was removed to measure the control pre-treatment allergen level of that specific sample. Each control was directly relevant to each sample, which gave the best possible estimate of the level of allergen in the sample before exposure to possible denaturant. All tests employed a glass reinforced plastic booth of size 0.7 m×0.7 m×1.0 m. All tests had 5 or 6 replicates. Average values are stated.
The following Examples all measure the reduction of the house dust mite Dermatophagoides pteronyssinus allergen—Der p1.
House dust was passed through a number of sieves and the fraction smaller than 53 μm was collected. 0.025 g of dust was placed in a small sieve to distribute it evenly over the test surface. The test surface was a PTFE (polytetrafluoroethylene—trade mark TEFLON) coated metal tray of size 30 cm×30 cm. The dust was applied to the tray by moving the sieve continuously over the surface while tapping the sieve. One half of the dust was then removed by suction onto an in-line filter and the weight recorded, this was the pre-treatment control. The tray was then placed in the booth. An oil burner containing 0.8 ml of β-pinene floated on 6ml of distilled water was placed in the booth, and the booth was sealed. The oil burner candle was lit and allowed to burn, under the oil/water until all the liquid had been vaporised (approximately 30 minutes). The candle was then smothered. After 24 hours the tray was removed, the dust was collected from it and its weight recorded. The booth was washed with strong detergent between tests.
The test samples were assayed for the Der p1 allergen using an ELISA (enzyme linked immunosorbent assay) to determine the allergen content. This was then related to the weight of dust that had been present in each sample. All of the samples were multiplied up to compare the amount of allergen expected to be present in a 0.1 g sample of dust. The percentage difference between the control sample and the exposed sample was then obtained. One analysis was carried out on week 0 (24 hours after the tests were completed. Another analysis was carried out after 2 weeks.
Corresponding tests were carried out and the same ELISA analysis carried out at Week 0 and after 4 weeks.

T1 sequence (P08176 99-320): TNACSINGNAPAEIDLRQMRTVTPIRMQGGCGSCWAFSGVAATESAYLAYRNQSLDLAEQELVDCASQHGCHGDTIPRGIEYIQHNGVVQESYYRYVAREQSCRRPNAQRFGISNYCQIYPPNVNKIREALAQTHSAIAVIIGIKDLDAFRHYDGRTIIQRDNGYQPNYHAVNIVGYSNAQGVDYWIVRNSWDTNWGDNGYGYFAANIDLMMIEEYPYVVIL

C=C1CCC2CC1C2(C)C (stereo not drawn) [β-pinene]
Der p1 allergen reduction (corresponding (second) test series, Week 0): Week 0-77.5%
Der p1 allergen reduction (corresponding (second) test series, Week 4 (analysis after 4 weeks)): Week 4-91.6%
Der p1 allergen reduction (first test series, Week 0 (24 hours after the tests were completed)): Week 0-68.0%
Der p1 allergen reduction (first test series, Week 2 (analysis after 2 weeks)): Week 2-66.3%
